# Experiments:
# Design in all cases: purchased Milipore (Millipore)
# [1] = biological target: T1, Human adrenergic α2B receptor (Homo sapiens, UniProt P18089); assay: Radioligand binding, adrenergic α2B (Protocol Group B); settings: Protocol Group B; for Percentage inhibition of ligand binding, Adrenergic α2B (30 nM) / inhibition at 0.03 µM: 30 nM compound; for Percentage inhibition of ligand binding, Adrenergic α2B (30 nM): 0.03 µM; for inhibition at 0.03 µM: read-out: Percentage inhibition of ligand binding, Adrenergic α2B (30 nM); for Percentage inhibition of ligand binding, Adrenergic α2B (10 nM): 10 nM compound, 0.01 µM; for Percentage inhibition of ligand binding, Adrenergic α2B (0.1 μM): 0.1 μM compound
# T1 sequence (P18089 1-450): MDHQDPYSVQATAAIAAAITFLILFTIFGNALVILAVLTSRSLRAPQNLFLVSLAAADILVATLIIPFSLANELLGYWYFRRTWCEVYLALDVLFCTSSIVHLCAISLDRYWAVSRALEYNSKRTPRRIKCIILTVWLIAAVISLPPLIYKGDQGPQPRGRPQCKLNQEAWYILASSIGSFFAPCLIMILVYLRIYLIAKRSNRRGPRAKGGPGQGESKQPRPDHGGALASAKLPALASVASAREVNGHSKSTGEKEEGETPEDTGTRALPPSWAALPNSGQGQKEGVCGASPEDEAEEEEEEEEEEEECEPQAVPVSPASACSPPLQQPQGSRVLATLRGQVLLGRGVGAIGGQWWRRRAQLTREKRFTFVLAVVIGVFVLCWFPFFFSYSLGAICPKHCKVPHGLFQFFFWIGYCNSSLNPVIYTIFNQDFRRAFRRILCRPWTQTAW
# Procedure, shortened: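 Recombinant human α2B receptor membranes incubated with compounds in 50 mM Tris-HCl pH 7.4, 5 mM MgCl2, 1 mM CaCl2, 0.2% BSA, 1% DMSO vehicle. Non-specific binding defined with 10 μM rauwolscine. Values are percent inhibition of specific binding or estimated Ki.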
# [2] = biological target: T2, Human adrenergic α1B receptor (Homo sapiens, UniProt P35368); assay: Radioligand binding, adrenergic α1B (Protocol Group B); settings: Protocol Group B; for Percentage inhibition of ligand binding, Adrenergic α1B (0.1 μM): 0.1 μM compound; for Percentage inhibition of ligand binding, Adrenergic α1B (0.3 μM): 0.3 μM compound
# T2 sequence (P35368 1-520): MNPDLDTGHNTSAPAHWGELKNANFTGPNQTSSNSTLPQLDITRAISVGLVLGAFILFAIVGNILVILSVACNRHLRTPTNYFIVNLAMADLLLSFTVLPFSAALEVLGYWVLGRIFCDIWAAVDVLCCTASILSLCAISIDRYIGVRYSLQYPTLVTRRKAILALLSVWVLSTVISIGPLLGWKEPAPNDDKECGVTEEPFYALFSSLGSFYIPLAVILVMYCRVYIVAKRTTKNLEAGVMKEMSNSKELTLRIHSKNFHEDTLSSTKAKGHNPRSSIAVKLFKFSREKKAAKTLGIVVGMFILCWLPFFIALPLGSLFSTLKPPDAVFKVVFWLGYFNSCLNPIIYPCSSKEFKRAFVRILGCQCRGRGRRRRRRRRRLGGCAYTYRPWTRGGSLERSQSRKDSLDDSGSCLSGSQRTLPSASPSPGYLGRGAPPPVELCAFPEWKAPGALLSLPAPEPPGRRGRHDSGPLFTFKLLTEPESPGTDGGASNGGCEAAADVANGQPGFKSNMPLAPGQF
# Procedure, shortened: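 Recombinant human α1B membranes incubated with test compound and 0.3 nM [3H]prazosin, 60 min at 25 °C, in 50 mM Tris-HCl pH 7.4, 10 mM MgCl2, 1 mM EDTA; nonspecific binding with 10 μM prazosin. Filter-bound radioactivity counted; values are % inhibition of specific binding or estimated Ki.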
# [3] = biological target: T3, Human adrenergic α2A receptor (Homo sapiens, UniProt P08913); assay: Radioligand binding, adrenergic α2A (Protocol Group B); settings: Protocol Group B; for Percentage inhibition of ligand binding, Adrenergic α2A (0.1 μM): 0.1 μM compound; for Percentage inhibition of ligand binding, Adrenergic α2A (0.3 μM): 0.3 μM compound
# T3 sequence (P08913 1-465): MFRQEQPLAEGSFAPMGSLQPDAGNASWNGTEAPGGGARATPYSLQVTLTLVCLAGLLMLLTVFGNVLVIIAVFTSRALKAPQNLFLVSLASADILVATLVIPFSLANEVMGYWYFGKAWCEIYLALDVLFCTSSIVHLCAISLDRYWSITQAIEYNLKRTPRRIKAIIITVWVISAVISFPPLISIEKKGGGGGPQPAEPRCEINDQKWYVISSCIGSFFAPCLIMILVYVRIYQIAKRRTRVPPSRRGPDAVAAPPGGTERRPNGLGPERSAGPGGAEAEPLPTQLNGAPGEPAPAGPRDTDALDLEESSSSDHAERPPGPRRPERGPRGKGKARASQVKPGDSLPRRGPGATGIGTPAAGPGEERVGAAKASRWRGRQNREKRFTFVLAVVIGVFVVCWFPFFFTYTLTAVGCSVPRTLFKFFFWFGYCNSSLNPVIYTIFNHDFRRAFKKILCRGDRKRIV
# Procedure, shortened: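 Membranes from recombinant cells expressing the receptor, in 50 mM Tris-HCl pH 7.4 with 5 mM MgCl2, 1 mM CaCl2, 0.2% BSA; compounds incubated with 2 nM [^3H]MK-912 for 60 min at 25° C. Nonspecific binding defined by 10 μM rauwolscine; filtration, counting; percent inhibition of specific binding, or estimated Ki.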
SMILES,"Percentage inhibition of ligand binding, Adrenergic α2B (30 nM) [1] [%]","Percentage inhibition of ligand binding, Adrenergic α1B (0.1 μM) [2] [%]","Percentage inhibition of ligand binding, Adrenergic α2A (0.1 μM) [3] [%]",inhibition at 0.03 µM [1] [%],"Percentage inhibition of ligand binding, Adrenergic α2B (10 nM) [1] [%]","Percentage inhibition of ligand binding, Adrenergic α2B (0.1 μM) [1] [%]","Percentage inhibition of ligand binding, Adrenergic α1B (0.3 μM) [2] [%]","Percentage inhibition of ligand binding, Adrenergic α2A (0.3 μM) [3] [%]"
"Cc1ccc2c(c1)c1c(n2CC(OCC2CCC2)c2ccncc2)CCN2CCCC12 (single isomer, unassigned) [138d]",11,0,4,,,,,
"CN1CCc2c(c3cc(CCO)ccc3n2CC(C)(O)c2cccnc2)C1 (single isomer, unassigned) [139a]",31,9,7,,,,,
"CN1CCc2c(c3cc(CCO)ccc3n2CC(C)(O)c2cccnc2)C1 (single isomer, unassigned) [139b]",3,1,0,,,,,
"CN1CCc2c(c3cc(CCO)ccc3n2CC(O)c2ccncc2)C1 (single isomer, unassigned) [140a]",−12,−9,−5,,,,,
"CN1CCc2c(c3cc(CCO)ccc3n2CC(O)c2ccncc2)C1 (single isomer, unassigned) [140b]",56,−4,−11,,,,,
"Cc1cc(Cl)c2c(c1)c1c(n2CC(O)c2ccncc2)CCN2CCCC12 (single isomer, unassigned) [142a]",,46,52,92,,,,
"Cc1cc(Cl)c2c(c1)c1c(n2CC(O)c2ccncc2)CCN2CCCC12 (single isomer, unassigned) [142b]",100,76,95,,,,,
"OC(Cn1c2c(c3cc(Cl)ccc31)C1CCCN1CC2)c1ccncc1 (single isomer, unassigned) [143a]",89,91,44,,,,,
"OC(Cn1c2c(c3cc(Cl)ccc31)C1CCCN1CC2)c1ccncc1 (single isomer, unassigned) [143b]",100,94,93,,,,,
"OC(Cn1c2c(c3cc(Cl)ccc31)C1CCCN1CC2)c1ccncc1 (single isomer, unassigned) [143c]",5,9,1,,,,,
"OC(Cn1c2c(c3cc(Cl)ccc31)C1CCCN1CC2)c1ccncc1 (single isomer, unassigned) [143d]",4,15,7,,,,,
"OC(Cn1c2c(c3cc(F)cc(F)c31)C1CCCN1CC2)c1ccncc1 (single isomer, unassigned) [144a]",73,28,16,,,,,
"OC(Cn1c2c(c3cc(F)cc(F)c31)C1CCCN1CC2)c1ccncc1 (single isomer, unassigned) [144b]",100,18,61,,,,,
"OC(Cn1c2c(c3cc(F)cc(F)c31)C1CCCN1CC2)c1ccncc1 (single isomer, unassigned) [144c]",−12,−2,1,,,,,
"OC(Cn1c2c(c3cc(F)cc(F)c31)C1CCCN1CC2)c1ccncc1 (single isomer, unassigned) [144d]",1,1,1,,,,,
"Cc1cc(Br)c2c(c1)c1c(n2CC(O)c2ccncc2)CCN2CCCC12 (single isomer, unassigned) [145a]",,46,39,84,,,,
"Cc1cc(Br)c2c(c1)c1c(n2CC(O)c2ccncc2)CCN2CCCC12 (single isomer, unassigned) [145b]",100,68,89,,,,,
Cc1ccc2c(c1)c1c(n2CC(C)(O)c2cccnc2)CC2CCCN2C1 (stereo not drawn) [38a],11,14,−2,,−2,30,21,11
Cc1ccc2c(c1)c1c(n2CC(C)(O)c2cccnc2)CC2CCCN2C1 (stereo not drawn) [38d],14,1,−4,,1,22,12,3
Cc1ccc2c(c1)c1c(n2CC(C)(O)c2cccnc2)CC2CCCN2C1 (stereo not drawn) [41a],51,−2,−7,,24,80,−3,6
